Laboratory results reported in patent US6476004B1, “Pharmaceutical composition” (Mitsubishi Pharma Corporation, priority 1996, dated 2002).

Test: Behaviour of the aqueous solution of the present compound
Assay type: physicochemical
Description: When 2-amino-2-[2-(4-octylphenyl)ethyl]propane-1,3-diol or a pharmaceutical acceptable acid addition salt (particularly hydrochloride) is made an aqueous solution, the solution is observed foaming and shown hemolysis and local irritation at 0.01-20% by weight. When the present compound is made the aqueous solution at a higher concentration than 0.1% by weight, the present compound is dissolved by micellization. On the other hand, in the aqueous solution at a lower concentration than 0.05% by weight, the present compound is dissolved as a solution without micellization. […] The present invention characterizes that, by adding a cyclodextrin to the said aqueous solution, the problems such as foaming, hemolysis and local irritation, as well as prevention of crystalline deposits based on micellization, are settled at the same time.

- concentration of aqueous solution at which crystalline deposits are found: 0.05-0.1 % by weight
- concentration of aqueous solution at which the compound is dissolved by micellization: > 0.1 % by weight
- concentration of aqueous solution at which the compound is dissolved without micellization: < 0.05 % by weight
SMILES: CCCCCCCCc1ccc(CCC(N)(CO)CO)cc1.Cl [present compound, 2-amino-2-[2-(4-octylphenyl)ethyl]propane-1,3-diol hydrochloride]
- concentration of aqueous solution at which foaming, hemolysis and local irritation are shown: 0.01-20 % by weight
